This note sets out measurements from article PMC6905112, “CtcS, a MarR family regulator, regulates chlortetracycline biosynthesis” (BMC Microbiology, 2019).

Assay [1] deals with T1, CtcS (Kitasatospora aureofaciens, UniProt S4S3A4).
T1 sequence (S4S3A4 1-165): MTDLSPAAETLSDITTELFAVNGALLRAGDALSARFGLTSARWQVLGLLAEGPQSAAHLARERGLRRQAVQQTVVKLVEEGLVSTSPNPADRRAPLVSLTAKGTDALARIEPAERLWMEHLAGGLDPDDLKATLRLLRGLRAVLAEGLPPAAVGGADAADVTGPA
The assay can be described thus: competitive EMSA, release of FAM-labelled ctcS-ctcR intergenic DNA probe. The class given is binding. Particulars: His6-CtcS 40 ng, probe 40 ng, 20 uL, pH 8.0, 0.0015-5 mM compound.

Assay [2] concerns the target His6-tagged recombinant CtcS (Streptomyces aureofaciens F3). The assay can be described thus: SEC; Superdex 200 10/300 column, AKTA FPLC P-920; ovalbumin (44 kD) and lysozyme (14 kD) as standards; purified His6-tagged CtcS.

For `CN(C)[C@@H]1C(=O)C(C(N)=O)=C(O)[C@@]2(O)C(=O)C3=C(O)c4c(O)cccc4[C@@](C)(O)[C@H]3C[C@@H]12` [tetracycline], the “competitive EMSA, release of FAM-labelled ctcS-ctcR intergenic DNA probe” value in assay [1] is “the DNA-binding affinity of CtcS would be decreased by the presence of TC and CTC”.
Still for that read-out and setting: for `CN(C)[C@@H]1C(=O)C(C(N)=O)=C(O)[C@@]2(O)C(=O)C3=C(O)c4c(O)ccc(Cl)c4[C@@](C)(O)[C@H]3C[C@@H]12` [chlortetracycline] the value was “the DNA-binding affinity of CtcS would be decreased by the presence of TC and CTC”.
Regarding “His6-tagged recombinant CtcS (natural protein)”, in assay [2], the stoichiometry N was found to be 2.
